Molecules are shown by their SMILES. Counter-ions that a name gives are not always drawn.

The assay deals with T1, human recombinant 6His-Nterm SHP2 full-length (Thr2-Arg593) (Homo sapiens, UniProt Q06124).
T1 construct: 6His-Nterm SHP2 full-length (Thr2-Arg593, R&D system); 6His (N); purchased R&D system
T1 sequence (Q06124 2-593): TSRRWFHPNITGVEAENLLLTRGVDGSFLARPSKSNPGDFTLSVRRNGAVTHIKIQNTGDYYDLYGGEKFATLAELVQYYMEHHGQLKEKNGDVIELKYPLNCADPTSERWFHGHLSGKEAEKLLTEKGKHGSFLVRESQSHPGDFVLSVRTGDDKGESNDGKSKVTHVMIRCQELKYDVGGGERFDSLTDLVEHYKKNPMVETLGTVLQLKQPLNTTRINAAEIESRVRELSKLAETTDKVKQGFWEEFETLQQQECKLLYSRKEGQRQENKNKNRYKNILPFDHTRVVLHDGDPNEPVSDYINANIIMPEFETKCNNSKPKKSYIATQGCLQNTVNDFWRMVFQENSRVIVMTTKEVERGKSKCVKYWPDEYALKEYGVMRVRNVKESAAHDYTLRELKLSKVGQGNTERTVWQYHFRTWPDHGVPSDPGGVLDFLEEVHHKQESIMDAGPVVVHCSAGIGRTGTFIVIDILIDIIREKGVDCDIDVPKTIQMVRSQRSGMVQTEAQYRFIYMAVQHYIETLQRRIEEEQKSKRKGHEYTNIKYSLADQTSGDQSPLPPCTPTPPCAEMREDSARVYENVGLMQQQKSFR
Kind of assay: SHP2 Phosphatase Assay (DiFMUP fluorescence). To be noted: SHP2 0.2 nM pre-incubated with 100 nM bi-phosphorylated activating peptide; compound 1000-0.05 nM, 30 min pre-incubation; DiFMUP 20 µM, 45 min, room temperature; 10-concentration dose-response. In kind it is biochemical. Summed up:
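SHP2 (0.2 nM) preactivated ≥10 min with 100 nM bis-phosphorylated peptide, then 30 min with compound (10 concentrations, 1000–0.05 nM) at room temperature, pH 7.2 HEPES buffer with DTT. DiFMUP (20 µM, added solution) reacted 45 min, pervanadate-stopped; fluorescence 350/450 nm. IC50 by 4-parameter logistic fit.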
As a reminder, the IC50 is the concentration at which inhibition is half-maximal. As to `Cc1nc(N2CCC3(CC2)Cc2ncccc2[C@H]3N)c2c(F)cnn2c1-c1ccccc1` [Compound 143, (5S)-1'-(3-fluoro-6-methyl-7-phenyl-pyrazolo[1,5-a]pyrazin-4-yl)spiro[5,7-dihydrocyclopenta[b]pyridine-6,4'-piperidine]-5-amine hydrochloride], the IC50 was 39 nM. The same measure for `Cc1nccc(-c2c(C)nc(N3CCC4(CC3)Cc3ncccc3[C@H]4N)c3c(F)cnn23)c1Cl` [Compound 144, (5S)-1'-[7-(3-chloro-2-methyl-4-pyridyl)-3-fluoro-6-methyl-pyrazolo[1,5-a]pyrazin-4-yl]spiro[5,7-dihydrocyclopenta[b]pyridine-6,4'-piperidine]-5-amine hydrochloride]: 17 nM. The same measure for `Cc1nc(N2CCC3(CC2)Cc2ncccc2[C@H]3N)c2c(CO)cnn2c1-c1ccccc1` [Compound 145, [4-[(5S)-5-aminospiro[5,7-dihydrocyclopenta[b]pyridine-6,4'-piperidine]-1'-yl]-6-methyl-7-phenyl-pyrazolo[1,5-a]pyrazin-3-yl]methanol]: above 1000 nM. With `Cc1nc(N2CCC3(CC2)Cc2ncccc2[C@H]3N)c2c(C(F)F)cnn2c1-c1ccccc1` [Compound 146, (5S)-1'-[3-(difluoromethyl)-6-methyl-7-phenyl-pyrazolo [1,5-a]pyrazin-4-yl]spiro[5,7-dihydrocyclopenta[b]pyridine-6,4'-piperidine]-5-amine], the IC50 was above 1000 nM. For `Cc1nc(N2CCC3(CC2)Cc2ncccc2[C@H]3N)c2c(C(F)F)cnn2c1-c1ccccc1F` [Compound 147, (5S)-1'-[3-(difluoromethyl)-7-(2-fluorophenyl)-6-methyl-pyrazolo[1,5-a]pyrazin-4-yl]spiro[5,7-dihydrocyclopenta[b]pyridine-6,4'-piperidine]-5-amine], the IC50 was above 1000 nM.

Take `CCn1cc(-c2c(C)nc(N3CCC4(CC3)Cc3cc(OC)ccc3[C@H]4N)c3ccnn23)cn1` [Compound 148, (1S)-1'-[7-(1-ethylpyrazol-4-yl)-6-methyl-pyrazolo[1,5-a]pyrazin-4-yl]-5-methoxy-spiro[indane-2,4'-piperidine]-1-amine]: the IC50 is 9 nM.

For `Cc1nc(N2CCC3(CC2)Cc2ccccc2[C@H]3N)c2ccnn2c1-c1cnn(C)c1C` [Compound 149, (1S)-1'-[7-(1,5-dimethylpyrazol-4-yl)-6-methyl-pyrazolo[1,5-a]pyrazin-4-yl]spiro[indane-2,4'-piperidine]-1-amine], the IC50 turned out to be 17 nM.

As to `Cc1nc(N2CCC3(CC2)Cc2ccccc2[C@H]3N)c2ccnn2c1-c1cnoc1C` [Compound 150, (1S)-1'-[6-methyl-7-(5-methylisoxazol-4-yl)pyrazolo[1,5-a]pyrazin-4-yl]spiro[indane-2,4'-piperidine]-1-amine], the IC50 came out at 140 nM. In the case of `Cc1nccc(-c2c(C)nc(N3CCC4(CC3)Cc3ccccc3[C@H]4N)c3ccnn23)c1F` [Compound 151, (1S)-1'-[7-(3-fluoro-2-methyl-4-pyridyl)-6-methyl-pyrazolo [1 ,5-a]pyrazin-4-yl]spiro[indane-2,4'-piperidine]-1-amine] it was 9 nM; in that of `Cc1ncc(-c2c(C)nc(N3CCC4(CC3)Cc3ncccc3[C@H]4N)c3ccnn23)s1` [Compound 152, (5S)-1'-[6-methyl-7-(2-methylthiazol-5-yl)pyrazolo [1,5-a]pyrazin-4-yl]spiro[5,7-dihydrocyclopenta[b]pyridine-6,4'-piperidine] -5-amine], 9 nM; in that of `Cc1nc(N2CCC3(CC2)Nc2ccccc2[C@H]3N)c2ccnn2c1-c1ccccc1F` [Compound 153, (3R)-1'-[7-(2-fluorophenyl)-6-methyl-pyrazolo[1,5-a]pyrazin-4-yl]spiro[indoline-2,4'-piperidine]-3-amine hydrochloride], 15 nM.

With `Cc1nccc(-c2c(C)nc(N3CCC4(CC3)Nc3ccccc3[C@H]4N)c3ccnn23)c1Cl` [Compound 154, (3R)-1'-[7-(3-chloro-2-methyl-4-pyridyl)-6-methyl-pyrazolo[1,5-a]pyrazin-4-yl]spiro[indoline-2,4'-piperidine]-3-amine hydrochloride], the half-inhibitory concentration (IC50) turned out to be 4 nM. The same measure for `Cc1nc(N2CCC3(CC2)[C@H](N)c2ccccc2N3C)c2ccnn2c1-c1ccccc1F` [Compound 155, (3R)-1'-[7-(2-fluorophenyl)-6-methyl-pyrazolo[1,5-a]pyrazin-4-yl]-1-methyl-spiro [indoline-2,4'-piperidine]-3-amine]: 202 nM; for `Cc1nccc(-c2c(C)nc(N3CCC4(CC3)[C@H](N)c3ccccc3N4C)c3ccnn23)c1Cl` [Compound 156, (3R)-1'-[7-(3-chloro-2-methyl-4-pyridyl)-6-methyl-pyrazolo[1,5-a]pyrazin-4-yl]-1-methyl-spiro[indoline-2,4'-piperidine]-3-amine]: 35 nM. With `Cc1nc(N2CCC3(CC2)Cc2ncccc2[C@H]3N)c2ccnn2c1-c1cncs1` [Compound 157, (5S)-1'-(6-methyl-7-thiazol-5-yl-pyrazolo[1,5-a]pyrazin-4-yl)spiro[5,7-dihydrocyclopenta[b]pyridine-6,4'-piperidine] -5-amine hydrochloride], the IC50 turned out to be 72 nM.

Take `Cc1nc(-c2c(C)nc(N3CCC4(CC3)Cc3ncccc3[C@H]4N)c3ccnn23)cs1` [Compound 158, (5S)-1'-[6-methyl-7-(2-methylthiazol-4-yl)pyrazolo[1,5-a]pyrazin-4-yl]spiro[5,7-dihydrocyclopenta[b]pyridine-6,4'-piperidine] -5-amine hydrochloride]: the IC50 came to 47 nM. The same measure for `Cc1nc(N2CCC3(CC2)Cc2ncccc2[C@H]3N)c2ccnn2c1-c1ccnnc1` [Compound 159, (5S)-1'-(6-methyl-7-pyridazin-4-yl-pyrazolo[1,5-a]pyrazin-4-yl)spiro[5,7-dihydrocyclopenta[b]pyridine-6,4'-piperidine]-5-amine hydrochloride]: 649 nM. The same measure for `Cc1nc(N2CCC3(CC2)Cc2ncccc2[C@H]3N)c2ccnn2c1-c1cscn1` [Compound 160, (5S)-1'-(6-methyl-7-thiazol-4-yl-pyrazolo[1,5-a]pyrazin-4-yl)spiro[5,7-dihydrocyclopenta[b]pyridine-6,4'-piperidine]-5-amine hydrochloride]: 63 nM; for `Cc1nc(C)c(-c2c(C)nc(N3CCC4(CC3)Cc3ncccc3[C@H]4N)c3ccnn23)s1` [Compound 161, (5S)-1'-[7-(2,4-dimethylthiazol-5-yl)-6-methyl-pyrazolo[1,5-a]pyrazin-4-yl]spiro [5,7-dihydrocyclopenta[b]pyridine-6,4'-piperidine]-5-amine hydrochloride]: 29 nM; for `Cc1nc(N2CCC3(CC2)Cc2ncccc2[C@H]3N)c2ccnn2c1-c1ccc2c(c1)OCC2` [Compound 162, (5S)-1'-[7-(2,3-dihydrobenzofuran-6-yl)-6-methyl-pyrazolo[1,5-a]pyrazin-4-yl]spiro[5,7-dihydrocyclopenta[b]pyridine-6,4'-piperidine]-5-amine]: 4 nM. The same measure for `Cc1nc(N2CCC3(CC2)Cc2ncccc2[C@H]3N)c2ccnn2c1-c1cc(C(F)(F)F)nn1C` [Compound 163, (5S)-1'-[6-methyl-7-[2-methyl-5-(trifluoromethyl)pyrazol-3-yl]pyrazolo[1,5-a]pyrazin-4-yl]spiro[5,7-dihydrocyclopenta[b]pyridine-6,4'-piperidine]-5-amine]: 30 nM.

(Values after EP4227307A1 (Genzyme Corporation, priority 2022, dated 2023).)
